From patent US20230053688A1, “METHODS TO ALTER LATENCY IN EBV+ MALIGNANCIES” (Cornell University, priority 2020, published 2023)
Where a name gives a salt, the structure may show the parent alone. Read-outs that look alike come from different tables or passages of the source.

Test system: LMP1 expression in Kem I cells
Experiment: microbe, parasite or virus in culture
Type: cell-based, EBV
Settings: for fold induction at 2.5 µM: human gammaherpesvirus 4, 48 h
[1] = read-out: Average LMP1 Fold Increase, Kem I cells, 2.5 uM, 48 hours, average of replicates 1 and 2
[2] = read-out: Replicate 1-LMP1 Fold Increase, Kem I cells, 2.5 uM, 48 hours, fold change in LMP1 transcript vs vehicle
[3] = read-out: Replicate 2-LMP1 Fold Increase, Kem I cells, 2.5 uM, 48 hours, fold change in LMP1 transcript vs vehicle
[4] = Kem I cells, 2.5 uM, 48 hours, average of replicates 1 and 2
[5] = Kem I cells, 2.5 uM, 48 hours, fold change in LMP1 transcript vs vehicle

Compound | fold induction at 2.5 µM [1] | fold induction at 2.5 µM [2] | fold induction at 2.5 µM [3] | Average LMP1 Fold Increase [4] | Replicate 1-LMP1 Fold Increase [5] | Replicate 2-LMP1 Fold Increase [5] | other results
CC1=C(/C=C/C(C)=C/C=C/C(C)=C\C(=O)O)C(C)(C)CCC1 [Isotretinoin] | 1.76 | 1.42 | 2.1 |  |  |  | 
Cc1ccccc1C(C(=O)NC1CCCCC1)N(C(=O)Cn1ccnc1C)c1cccc(F)c1 (stereo not drawn) [AGI-5198] | 0.82 | 0.71 | 0.93 |  |  |  | 
NC(=O)Nc1sc(-c2ccc(F)cc2)cc1C(N)=O [TPCA-1] |  |  |  |  |  |  | Average LMP1 Fold Increase (Kem I cells, dose 2.5 uM, 48 hours, LMP1 transcript by in-well qRT-PCR, average of the two replicates): 0.48 fold; Replicate 1-LMP1 Fold Increase (Kem I cells, dose 2.5 uM, 48 hours, LMP1 transcript by in-well qRT-PCR, screen replicate 1): 0.59 fold; Replicate 2-LMP1 Fold Increase (Kem I cells, dose 2.5 uM, 48 hours, LMP1 transcript by in-well qRT-PCR, screen replicate 2): 0.36 fold
CCCCCCCCCCCC1=C(O)C(=O)C=C(O)C1=O [Embelin] | 0.59 | 0.43 | 0.74 |  |  |  | 
O=C1NC(=O)/C(=C/c2ccc(-c3ccc(F)cc3O)o2)S1 [AS-252424] |  |  |  | 0.53 | 0.57 | 0.49 | 
CN(Cc1cnc2nc(N)nc(N)c2n1)c1ccc(C(=O)N[C@@H](CCC(=O)O)C(=O)O)cc1 [Abitrexate (Methotrexate)] |  |  |  | 3.17 | 3.70 | 2.64 | 
CHIR-98014 |  |  |  |  |  |  | Average LMP1 Fold Increase: 0.67; Replicate 1-LMP1 Fold Increase: 0.81; Replicate 2-LMP1 Fold Increase: 0.54
C[C@H](CS)C(=O)N1CCC[C@H]1C(=O)O [Captopril] | 0.62 | 0.71 | 0.52 |  |  |  | 
Oc1nc(-c2ccc(C(F)(F)F)cc2)nc2c1CSCC2 [XAV-939] |  |  |  |  |  |  | fold induction at 2.5 µM (read-out: Average LMP1 Fold Increase, Kem I cells, dose 2.5 uM, 48 hours, LMP1 transcript by in-well qRT-PCR, average of the two replicates): 0.73; fold induction at 2.5 µM (read-out: Replicate 1-LMP1 Fold Increase, Kem I cells, dose 2.5 uM, 48 hours, LMP1 transcript by in-well qRT-PCR, screen replicate 1): 0.73; fold induction at 2.5 µM (read-out: Replicate 2-LMP1 Fold Increase, Kem I cells, dose 2.5 uM, 48 hours, LMP1 transcript by in-well qRT-PCR, screen replicate 2): 0.73
CC[C@@H]1/C=C/C=C/C[C@H](C)[C@H](O)[C@](C)(O)C(=O)[C@H](C)[C@@H](O)[C@H](C)C(=O)[C@H](C)[C@@H](O)[C@H](C)/C=C/C(=O)O[C@H]2[C@@H](C)[C@@H](CC1)O[C@@]1(CC[C@@H](C)[C@@H](C[C@H](C)O)O1)[C@@H]2C [Oligomycin A] |  |  |  | 1.40 | 1.03 | 1.76 | 
CCNC(=O)[C@H]1O[C@@H](n2cnc3c(N)nc(NCCc4ccc(CCC(=O)O)cc4)nc32)[C@H](O)[C@@H]1O [CGS 21680 HCl] | 0.7 | 0.72 | 0.68 |  |  |  | 
Cc1cc(SCc2sc(-c3ccc(C(F)(F)F)c(F)c3)nc2C)ccc1OCC(=O)O [GW0742] |  |  |  | 0.76 | 0.53 | 0.99 | 
CS(=O)(=O)c1cccc(CNc2nc(Nc3ccc4c(c3)CCC(=O)N4)ncc2C(F)(F)F)c1 [PF-573228] |  |  |  | 0.66 | 0.87 | 0.45 | 
COC1CCN(C(=O)c2cc(Cc3n[nH]c(=O)c4ccccc34)ccc2F)CC1 [AZD2461] |  |  |  | 1.00 | 0.50 | 1.51 | 
COc1cc2c(cc1O)CC[C@@H]1[C@@H]2CC[C@]2(C)[C@@H](O)CC[C@@H]12 [2-Methoxyestradiol (2-MeOE2)] |  |  |  | 1.00 | 0.65 | 1.34 | 
CC[C@H](NC(=O)[C@H](C)NC)C(=O)N1C[C@@H](O)C[C@H]1Cc1c(-c2[nH]c3cc(F)ccc3c2C[C@@H]2C[C@H](O)CN2C(=O)[C@H](CC)NC(=O)[C@H](C)NC)[nH]c2cc(F)ccc12 [Birinapant] | 1.03 | 1.05 | 1.02 |  |  |  | 
